Experimental data reported in patent US20080167532A1, “ASSESSING CANCER TREATMENT RESPONSIVENESS” (Mayo Foundation for Medical Education and Research, priority 2006, published 2008).
“Also recorded” adds a separate entry of the source. Where two headings read alike, the source gives them in different places.

How the values were obtained:
[1] = tested on: DRO cells; experiment: DRO cell proliferation (cell counts over six days); type: cell-based, human; settings: for IC50: Homo sapiens
Procedure: . Cells were treated every 48 hours over six days. Cell numbers were counted and data were plotted as mean values ±S.D. The thiazolidinediones inhibited cell proliferation of DRO cells in a dose responsive fashion (FIG. 3B). […]. The EC50 concentrations were in close agreement with the IC50 concentrations for each compound (FIG. 3B).
. […] Cell numbers were counted and data were plotted as mean values ±S.D. (FIG. 9D).
DRO90-1 (DRO) and ARO81 (ARO) cells were derived from primary cultures of human anaplastic thyroid carcinoma tumors that were obtained from Dr. G. J. Juillard (University of California-Los Angeles, Los Angeles, Calif.), and KTC-2 and KTC3 cells were obtained from Dr. Junichi Kurebayashi (Podtcheko et al., J. Clin. Endocrinol. Metab., 88:1889-1896 (2003) and Pushkarev et al., Molecular mechanisms of the Effects of Low Concentrations of Taxol in Anaplastic Thyroid Cancer Cells. Endocrinology: en. 2004-0127 (2004)). Cells were cultured in RPMI 1640 medium (Cellgro, Herndon Va.) supplemented with 10% charcoal-stripped fetal bovine serum (Hyclone), non-essential amino acids, sodium pyruvate, and penicillin-streptomycin-amphotericin B at 37° C. in a humidified atmosphere with 5% CO^2. Charcoal-stripped serum was used to exclude endogenous PPAR ligands contained in serum. For proliferation studies, cells were plated in triplicate in 12-well culture plates at initial concentrations of 2×10^4 cells/well. After overnight incubation, cells were treated with 10 nM RS5444 or DMSO diluent (Sigma) for 6 days with medium, and drug changed every 48 hours. After 6 days, cells were washed with PBS (Cellgro), trypsinized, and counted by Beckman Coulter Counter (Beckman Instruments, Fullerton Calif.). […]. Cells were treated with either DMSO or 10 nM RS5444 (24 hours). After treatment, phase images were obtained on an inverted microscope. For real time PCR studies, cells were plated in 60 mm plates at 50% confluence and treated with 10 nM RS5444 for indicated incubation periods. […].
Cells were either plated in triplicate at 7.5×10^4 cells/mL in 6-well plates or 2×10^4 cells/well in 12-well plates, allowed to adhere overnight, and then transfected for 24 to 72 hours with 2 to 5 μg of either scrambled, p21^WAF1/CIP1 (1022539), RhoB (SI00058933) or PPAR-γ-specific siRNA duplexes (Qiagen Valencia, Calif.) using RNAiFect reagent (Qiagen). The DNA target sequence for PPAR-γ was 5′-[…]-3′. After transfection, cells in the 6-well plates were treated with either DMSO diluent or 10 nM RS5444 for 24 hours and then analyzed by either real time PCR or immunoblotting. Cells in the 12-well plates were exposed for 6 days with medium, and drug changed every 48 hours. After 6 days, cells were washed with PBS (Cellgro), trypsinized, and counted by Beckman Coulter Counter.

[2] = tested on: DRO cells; experiment: Western blot of RhoB, RhoA, p21, cyclin E polypeptides in DRO cells; type: cell-based, human
Procedure: RhoB and p21^WAF1/CIP1 polypeptide expression also was examined in ATC cells to determine the time course of induction of each polypeptide following stimulation with a PPARγ agonist (FIG. 6). […]. Polypeptide lysates were prepared and examined for RhoB, RhoA and β-actin expression. […]; FIG. 6A).
The time course for induction of RhoB and p21^WAF1/CIP1 was determined using Western blotting.
DRO90-1 (DRO) and ARO81 (ARO) cells were derived from primary cultures of human anaplastic thyroid carcinoma tumors that were obtained from Dr. G. J. Juillard (University of California-Los Angeles, Los Angeles, Calif.), and KTC-2 and KTC3 cells were obtained from Dr. Junichi Kurebayashi (Podtcheko et al., J. Clin. Endocrinol. Metab., 88:1889-1896 (2003) and Pushkarev et al., Molecular mechanisms of the Effects of Low Concentrations of Taxol in Anaplastic Thyroid Cancer Cells. Endocrinology: en. 2004-0127 (2004)). Cells were cultured in RPMI 1640 medium (Cellgro, Herndon Va.) supplemented with 10% charcoal-stripped fetal bovine serum (Hyclone), non-essential amino acids, sodium pyruvate, and penicillin-streptomycin-amphotericin B at 37° C. in a humidified atmosphere with 5% CO^2. Charcoal-stripped serum was used to exclude endogenous PPAR ligands contained in serum. For proliferation studies, cells were plated in triplicate in 12-well culture plates at initial concentrations of 2×10^4 cells/well. After overnight incubation, cells were treated with 10 nM RS5444 or DMSO diluent (Sigma) for 6 days with medium, and drug changed every 48 hours. After 6 days, cells were washed with PBS (Cellgro), trypsinized, and counted by Beckman Coulter Counter (Beckman Instruments, Fullerton Calif.). For morphology studies, cells were plated in 12 well plates at initial concentrations of 2.5×10^4 cells/well. Cells were treated with either DMSO or 10 nM RS5444 (24 hours). After treatment, phase images were obtained on an inverted microscope. For real time PCR studies, cells were plated in 60 mm plates at 50% confluence and treated with 10 nM RS5444 for indicated incubation periods. […].
Cells were collected and lysed in RIPA buffer containing 50 mM Tris, 5 mM EDTA, 150 mM NaCl, 0.1% SDS, 0.5% Deoxycholate, 1% NP40, and protease inhibitor cocktail (Roche) followed by centrifugation. Excised tumor tissues were lysed in 50 mM Tris pH 8.0+1% SDS. Collected supernatants were, analyzed for protein concentration using Pierce's BCA assay, with 25 μg protein loaded per gel lane (Invitrogen) with later transfer to Immobilon-P membranes. The membranes were hybridized with antibodies (Santa Cruz, Cell Signaling, Sigma-Aldrich, St. Louis Mo.) as indicated overnight at 4° C. followed by treatment with species-specific horseradish peroxidase IgG (Jackson labs) for 45 minutes at room temperature. Detection was performed using Supersignal West Pico chemoluminescence kit (Pierce). Quantification of bands was performed in triplicate using Image Quant 5.2 (Molecular Dynamics, Sunnyvale Calif.).

[3] = molecular target: T1, PPARγ (Homo sapiens, UniProt P37231); experiment: PPRE3-tk-luc reporter (dual luciferase) assay in DRO cells; type: cell-based; parameters: endogenous in cells; host or cells: DRO90-1 (DRO) human anaplastic thyroid carcinoma cells
T1 sequence (P37231 1-505): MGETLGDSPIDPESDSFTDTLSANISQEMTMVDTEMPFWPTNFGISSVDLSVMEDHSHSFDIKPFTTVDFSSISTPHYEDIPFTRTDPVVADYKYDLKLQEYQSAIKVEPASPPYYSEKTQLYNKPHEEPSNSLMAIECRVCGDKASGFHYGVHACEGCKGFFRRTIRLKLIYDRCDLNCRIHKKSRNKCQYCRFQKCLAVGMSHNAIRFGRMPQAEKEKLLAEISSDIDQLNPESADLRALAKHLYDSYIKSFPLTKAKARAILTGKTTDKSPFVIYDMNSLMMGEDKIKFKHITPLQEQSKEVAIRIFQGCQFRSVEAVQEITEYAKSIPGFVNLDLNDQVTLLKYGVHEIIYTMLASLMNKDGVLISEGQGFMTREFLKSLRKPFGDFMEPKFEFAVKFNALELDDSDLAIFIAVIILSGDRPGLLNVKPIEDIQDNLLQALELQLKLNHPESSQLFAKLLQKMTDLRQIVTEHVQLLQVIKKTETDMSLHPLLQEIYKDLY
Procedure: The effects of PPARγ agonists on DRO cells were investigated. […] Firefly luciferase activity was normalized to renilla […] activity (RLU) and plotted as mean values ±S.D. (FIG. 3A).
Cells were transfected with siRNA for 72 hours followed by transfected with a PPRE3-tk-luc reporter and treatment with 10 nM RS5444 for 24 hours. […] Cotransfection with renilla luciferase allowed for normalization to relative light units (RLU).
Cells were plated in 6-well culture plates at initial concentrations of 2×10^5 cells/well. After overnight incubation, cells were transfected with PPRE/luc and CMV/renilla luciferase plasmid using Lipofectamine 2000 (Invitrogen), and after 24 hours, cells were treated with PPAR-γ agonists at indicated concentrations. After 24 hours of drug treatments, cells were washed with PBS and lysed in 1× reporter lysis buffer (Roche), and luciferase activity was measured with a Dual Luciferase assay kit (Promega, Madison Wis.) with a luminometer (Veritas/Turner Biosystems). The enzyme activity was normalized for efficiency of transfection on the basis of renilla activity levels and reported as relative light units (RLU).

[4] = DRO cells treated every 48 hours over six days, read-out: IC50, concentration at which 50% of cell proliferation was inhibited

In the case of `COC(=O)[C@H](CCSC)NC(=O)c1ccc(NC[C@@H](N)CS)cc1-c1ccccc1` [FTI-277], the “inhibition of cell proliferation with RhoB vs scrambled siRNA” value ([1]; DRO cells transfected with RhoB or scrambled siRNA, treated every 48 hours for 6 days) is reported as “dependent upon the upregulation of RhoB polypeptide to inhibit cell proliferation” and the “RhoB and p21 expression (Western blot)” value ([2]; 24 hours, 10 nM RS5444, 1 ng/mL FK-228, 10 μM FTI-277) is reported as “upregulation of both RhoB and p21 expression”.
In the case of `O=C(Nc1ccccc1)c1cc([N+](=O)[O-])ccc1Cl` [GW9662], the “effect on growth inhibition by TZDs” value ([1]; DRO cells pretreated one hour with 10 μM GW9662 before 10 nM RS5444, 1 μM rosiglitazone or 10 μM troglitazone, every 48 hours over six days) is reported as “no longer growth inhibited”, the “effect of antagonist on RS5444-induced RhoB polypeptide expression” value ([2]; GW9662 plus 10 nM RS5444, 24 hours) is reported as “abolished; also recorded: blocked the ability of RS5444 to elevate RhoB polypeptide expression” and the “effect on RS5444 inducible luciferase activity” value ([3]; 10 μM GW9662 followed by 10 nM RS5444 one hour later) is reported as “complete loss of RS5444 inducible luciferase activity”. For the same molecule, the “effect on agonist activation of PPARγ-induced luciferase activity” value ([3]; DRO cells pretreated 5 minutes with 10 μM GW9662 before 10 nM RS5444, 1 μM rosiglitazone or 10 μM troglitazone) was “abolished”.
In the case of `CN(CCOc1ccc(CC2SC(=O)NC2=O)cc1)c1ccccn1` (stereo not drawn) [rosiglitazone], the IC50 [1, 4] is reported as roughly 75 nM.
With `Cc1c(C)c2c(c(C)c1O)CCC(C)(COc1ccc(CC3SC(=O)NC3=O)cc1)O2` (stereo not drawn) [troglitazone] the IC50 ([1]; DRO cells treated every 48 hours for six days (FIG. 3B legend), read-out: IC50, DRO cell number) was roughly 1400 nM and the IC50 [1, 4] was roughly 1410 nM.
